Assay [1] deals with Glo-Response ARE-luc2P HEK293 cell line. The assay can be described thus: ARE luciferase reporter cell-based assay.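 Further: luciferase signal tracks Nrf2 activation of the ARE once compounds disrupt KEAP1-Nrf2 binding, read with One-Glo reagent, DMSO serving as low control.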 The following applies: Homo sapiens, HEK293, 24 h, average of results obtained. In general terms: A reporter such as luciferase makes a cellular process visible.
In assay [2] the target is Kelch domain of human KEAP1 (321-624 aa) (Homo sapiens (Human), UniProt Q14145). The assay can be described thus: KEAP1 KELCH ThermoFluor binding assay.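 Further: Ligand-induced melting temperature shift of E. coli-expressed KEAP1 Kelch protein, Kd estimated from concentration-response curves of ΔTm.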 The settings on record: KEAP Kelch […], 1,8-ANS, pH 7.0, average of results obtained, read-out: Tf Kd. A general note: In DSF a fluorescence change marks the thermal transition of the protein.

Bounds are passed on as bounds.

We go through 16 compounds from patent publication US10947252B2, “Inhibitors of KEAP1-Nrf2 protein-protein interaction” (Janssen Pharmaceutica NV, priority 2018, dated 2021).

Sequence of Kelch domain of human KEAP1 (321-624 aa) (Q14145 321-624): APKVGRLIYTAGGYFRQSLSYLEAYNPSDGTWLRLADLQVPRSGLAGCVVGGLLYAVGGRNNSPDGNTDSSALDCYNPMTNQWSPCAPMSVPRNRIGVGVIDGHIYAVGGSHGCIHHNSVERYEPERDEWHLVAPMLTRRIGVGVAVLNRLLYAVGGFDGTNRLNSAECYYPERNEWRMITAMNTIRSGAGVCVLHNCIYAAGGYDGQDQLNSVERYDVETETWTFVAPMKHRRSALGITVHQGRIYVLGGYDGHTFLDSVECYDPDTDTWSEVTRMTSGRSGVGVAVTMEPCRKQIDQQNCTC

In turn, `Cc1ccc([C@H](CC(=O)O)c2ccn3c(C(F)(F)F)nnc3c2C)cc1CN1C[C@H]2CCCN2c2ccccc2S1(=O)=O` (single isomer, unassigned) [Example 266, (*S)-3-(3-(((R)-5,5-Dioxido-7a,8,9,10-tetrahydrobenzo[f]pyrrolo[2,1-d][1,2,5]thiadiazepin-6(7H)-yl)methyl)-4-methylphenyl)-3-(8-methyl-3-(trifluoromethyl)-[1,2,4]triazolo[4,3-a]pyridin-7-yl)propanoic Acid] returned an EC50 in assay [1] of 0.0146 µM. The dissociation constant (Kd) in assay [2] was less than 0.001 µM.
As to `Cc1ccc([C@@H](CC(=O)O)c2ccn3c(C(F)F)nnc3c2C)cc1CN1C[C@@H]2CCCN2c2ncc(C#N)cc2S1(=O)=O` (single isomer, unassigned) [Example 544, (*R)-3-(3-(((S)-3-Cyano-5,5-dioxido-7a,8,9,10-tetrahydropyrido[2,3-f]pyrrolo[2,1-d][1,2,5]thiadiazepin-6(7H)-yl)methyl)-4-methylphenyl)-3-(3-(difluoromethyl)-8-methyl-[1,2,4]triazolo[4,3-a]pyridin-7-yl)propanoic Acid], in assay [1], the EC50 is 0.278 µM. Also, in assay [2], the Kd was less than 0.001 µM.
The corresponding values for `Cc1ccc([C@H](CC(=O)O)c2ccc3c(nnn3CC3CC3)c2C)cc1CN1CC2(COC2)Oc2ccccc2S1(=O)=O` (single isomer, unassigned) [Example 77, (*S)-3-(1-(Cyclopropylmethyl)-4-methyl-1H-benzo[d][1,2,3]triazol-5-yl)-3-(3-((1′,1′-dioxidospiro[benzo[b][1,4,5]oxathiazepin-4,3′-oxetan]-2,(3H)-yl)methyl)-4-methylphenyl)propanoic Acid] are 0.0157 µM and 0.00042 µM.
In assay [1], `Cc1ccc([C@@H](c2ccn3c(C(F)(F)F)nnc3c2C)C(C)(C)C(=O)O)cc1CN1CC2(CNC2)Oc2ncccc2S1(=O)=O` (single isomer, unassigned) [Example 338, (*S)-3-(3-((1′,1′-Dioxidospiro[azetidine-3,4′-pyrido[2,3-b][1,4,5]oxathiazepin]-2′(3′H)-yl)methyl)-4-methylphenyl)-2,2-dimethyl-3-(8-methyl-3-(trifluoromethyl)-[1,2,4]triazolo[4,3-a]pyridin-7-yl)propanoic Acid] had an EC50 of 0.0131 µM. For the same compound, in assay [2], the Kd is less than 0.001 µM.
`Cc1ccc([C@@H](CC(=O)O)c2ccn3c(C(F)(F)F)nnc3c2C)cc1CN1C[C@@H]2CCC(F)(F)CN2c2ncccc2S1(=O)=O` (single isomer, unassigned) [Example 455, (*R)-3-(3-(((*S)-10,10-Difluoro-5,5-dioxido-7,7a,8,9,10,11-hexahydro-6H-dipyrido[2,1-d:2′,3′-f][1,2,5]thiadiazepin-6-yl)methyl)-4-methylphenyl)-3-(8-methyl-3-(trifluoromethyl)-[1,2,4]triazolo[4,3-a]pyridin-7-yl)propanoic Acid]: a half-maximal effect in assay [1] (EC50) was put at 0.798 µM. Moreover, in assay [2], the Kd was less than 0.001 µM.
The corresponding values for `Cc1ccc([C@@H](c2ccn3c(C4CC4)nnc3c2C)C(C)(C)C(=O)O)cc1CN1CC2(COC2)Oc2ncccc2S1(=O)=O` (single isomer, unassigned) [Example 621, (*S)-3-(3-Cyclopropyl-8-methyl-[1,2,4]triazolo[4,3-a]pyridin-7-yl)-3-(3-((1′,1′-dioxidospiro[oxetane-3,4′-pyrido[2,3-b][1,4,5]oxathiazepin]-2′(3′H)-yl)methyl)-4-methylphenyl)-2,2-dimethylpropanoic Acid] are 5.64 µM and less than 0.001 µM.
The corresponding values for `Cc1ccc([C@H](CC(=O)O)c2ccn3c(C(F)F)nnc3c2C)cc1CN1C[C@H]2COCCN2c2ncccc2S1(=O)=O` (single isomer, unassigned) [Example 461, (*S)-3-(3-(Difluoromethyl)-8-methyl-[1,2,4]triazolo[4,3-a]pyridin-7-yl)-3-(3-(((*S)-5,5-dioxido-7a,8,10,11-tetrahydro-[1,4]oxazino[3,4-d]pyrido[2,3-f][1,2,5]thiadiazepin-6(7H)-yl)methyl)-4-methylphenyl)propanoic Acid] are 0.0687 µM and 0.00119 µM.
The corresponding values for `Cc1cnc2c(c1)S(=O)(=O)N(Cc1cc([C@H](c3ccc4c(nnn4C4CC4)c3C)C(C)(C)C(=O)O)cnc1C)CC1(CC1)O2` (single isomer, unassigned) [Example 396, (*R)-3-(1-Cyclopropyl-4-methyl-1H-benzo[d][1,2,3]triazol-5-yl)-2,2-dimethyl-3-(6-methyl-5-((8′-methyl-1′,1′-dioxidospiro[cyclopropane-1,4′-pyrido[2,3-b][1,4,5]oxathiazepin]-2′(3′H)-yl)methyl)pyridin-3-yl)propanoic Acid] are 4.9 µM and 21.8 µM.
For `Cc1ccc(C(CC(=O)O)c2ccn3c(C(F)(F)F)nnc3c2C)nc1CN1C[C@@H]2CCCCN2c2ncccc2S1(=O)=O` (stereo in doubt) [Example 478, 3-(6-(((*S)-5,5-Dioxido-7,7a,8,9,10,11-hexahydro-6H-dipyrido[2,1-d:2′,3′-f][1,2,5]thiadiazepin-6-yl)methyl)-5-methylpyridin-2-yl)-3-(8-methyl-3-(trifluoromethyl)-[1,2,4]triazolo[4,3-a]pyridin-7-yl)propanoic Acid], in assay [1], a half-maximal response (EC50) required 0.0576 µM. For the same compound, the Kd in assay [2] is less than 0.001 µM.
The corresponding values for `Cc1ccc([C@H](CC(=O)O)c2ccn3c(C(F)(F)F)nnc3c2C)cc1CN1CC2(CC2)Oc2nc(NCCN3CCOCC3)ccc2S1(=O)=O` (single isomer, unassigned) [Example 111, (*S)-3-(4-Methyl-((7′-((2-morpholinoethyl)amino)-1′,1′-dioxidospiro[cyclopropane-1,4′-pyrido[2,3-b][1,4,5]oxathiazepin]-2′(3′H)-yl)methyl)-4-methylphenyl)-3-(8-methyl-3-(trifluoromethyl)-[1,2,4 [triazolo[4,3-a]pyridine-7-yl)propanoic Acid] are 0.588 µM and less than 0.001 µM.
`Cc1ccc([C@@H](c2ccn3c(C(F)F)nnc3c2C)C(C)(C)C(=O)O)cc1CN1CC2(CC2)Oc2nc(OCCN3CCCC3)c(C)cc2S1(=O)=O` (single isomer, unassigned) [Example 375, (*S)-3-(3-(Difluoromethyl)-8-methyl-[1,2,4]triazolo[4,3-a]pyridine-7-yl)-2,2-dimethyl-3-(4-methyl-3-((8′-methyl-1′,1′-dioxido-7′-(2-(pyrrolidin-1-yl)ethoxy)spiro[cyclopropane-1,4′-pyrido[2,3-b][1,4,5]oxathiazepin]-2′(3′H)-yl)methyl)phenyl)propanoic Acid] yielded a concentration for a half-maximal effect (EC50) in assay [1] of 0.0115 µM. The equilibrium dissociation constant (Kd) in assay [2] is less than 0.001 µM.
In assay [1], `COc1ccc2c(n1)OC1(CCOCC1)CN(Cc1cc([C@@H](c3ccn4c(C(F)F)nnc4c3C)C(C)(C)C(=O)O)ccc1C)S2(=O)=O` (single isomer, unassigned) [Example 582, (*S)-3-(3-(Difluoromethyl)-8-methyl-[1,2,4]triazolo[4,3-a]pyridin-7-yl)-3-(3-((7′-methoxy-1′,1′-dioxido-2,3,5,6-tetrahydrospiro[pyran-4,4′-pyrido[2,3-b][1,4,5]oxathiazepin]-2′(3′H)-yl)methyl)-4-methylphenyl)-2,2-dimethylpropanoic Acid] gave an EC50 of 0.00143 µM. In addition, the dissociation constant Kd in assay [2] was less than 0.001 µM.
`Cc1ccc([C@H](CC(=O)O)c2ccc3c(nnn3CC3CC3)c2C)cc1CN1C[C@@]2(C)CCCN2c2ncccc2S1(=O)=O` (single isomer, unassigned) [Example 82, (*S)-3-(1-(Cyclopropylmethyl)-4-methyl-1H-benzo[d][1,2,3]triazol-5-yl)-3-(4-methyl-3-(((*R)-7a-methyl-5,5-dioxido-7a,8,9,10-tetrahydropyrido[2,3-f]pyrrolo[2,1-d][1,2,5]thiadiazepin-6(7H)-yl)methyl)phenyl)propanoic Acid] had an EC50 in assay [1] of 3.35 µM. In addition, the Kd in assay [2] was found to be 0.08 µM.
With `Cc1ccc([C@@H](CC(=O)O)c2ccn3c(C(F)(F)F)nnc3c2C)cc1CN1C[C@@H]2CCCCN2c2ncccc2S1(=O)=O` (single isomer, unassigned) [Example 291, (*R)-3-(3-(((*S)-5,5-Dioxido-7,7a,8,9,10,11-hexahydro-6H-dipyrido[2,1-d:2′,3′-][1,2,5]thiadiazepin-6-yl)methyl)-4-methylphenyl)-3-(8-methyl-3-(trifluoromethyl)-[1,2,4]triazolo[4,3-a]pyridin-7-yl)propanoic Acid], the response in assay [1] was half-maximal at 0.0868 µM (EC50). The Kd in assay [2] is less than 0.001 µM.
As to `Cc1cnc2c(c1)S(=O)(=O)N(Cc1cc([C@@H](c3ccn4c(C(F)(F)F)nnc4c3C)C(C)(C)C(=O)O)ncc1C)CC1(CCOCC1)O2` (single isomer, unassigned) [Example 591, (*S)-2,2-Dimethyl-3-(8-methyl-3-(trifluoromethyl)-[1,2,4]triazolo[4,3-a]pyridin-7-yl)-3-(5-methyl-4-((8′-methyl-1′,1′-dioxido-2,3,5,6-tetrahydrospiro[pyran-4,4′-pyrido[2,3-b][1,4,5]oxathiazepin]-2′(3′H)-yl)methyl)pyridin-2-yl)propanoic Acid], a half-maximal response in assay [1] (EC50) required 0.0261 µM. Also, the Kd in assay [2] was less than 0.001 µM.
Consider `Cc1ccc([C@H](c2ccn3c(C(F)(F)F)nnc3c2C)C(C)(C)C(=O)O)nc1CN1CC2(CC2)Oc2nc(OCCN3CCCC3)c(C)cc2S1(=O)=O` (single isomer, unassigned) [Example 633, (*R)-2,2-Dimethyl-3-(8-methyl-3-(trifluoromethyl)-[1,2,4]triazolo[4,3-a]pyridin-7-yl)-3-(5-methyl-6-((8′-methyl-1′,1′-dioxido-7′-(2-(pyrrolidin-1-yl)ethoxy)spiro[cyclopropane-1,4′-pyrido[2,3-b][1,4,5]oxathiazepin]-2′(3′H)-yl)methyl)pyridin-2-yl)propanoic Acid], for which the midpoint of the response in assay [1], the EC50, lay at 1.75 µM. The Kd in assay [2] came out at 2.26 µM.

As usually defined, the EC50 is the concentration at which the effect is half-maximal. For orientation: Kd means the equilibrium constant for the complex coming apart.
